Experiments:
PANC-1 = assay: Neutral red growth inhibition; format: cell-based, human; details: PANC-1, Pancreas, HCl salt
Procedure: (§1) Compound B's activity is not confined to activity against colon cancer cell lines or animal models of colon cancer. It has a broad range of anti-neoplastic effects in various neoplastic cell lines. Various types of human cancer cell lines were propagated under sterile conditions in RPMI 1640 medium with 10% fetal bovine serum, 2 mM L-glutamine and sodium bicarbonate. To determine growth inhibitory effects of Compound B, cells were seeded in 96-well plates at a density of 1000 cells per well. […] The effect of the drug on tumor cell growth was determined using the neutral red cytotoxicity assay following five days of continuous treatment. Neutral red is a dye that is selectively taken up by viable cells by an ATP-dependent transport mechanism.

RPMI-8226 = assay: Neutral red growth inhibition; format: cell-based, human; details: RPMI-8226, Myeloma, HCl salt
Procedure: as §1

Molt-4 = assay: Neutral red growth inhibition; format: cell-based, human; details: Molt-4, Leukemia, HCl salt
Procedure: as §1

K-562 = assay: Neutral red growth inhibition; format: cell-based, human; details: K-562, Leukemia, HCl salt
Procedure: as §1

caspase-3 in SW480 cells = assay: Caspase-3 activity with Ac-DEVD-AFC substrate; format: cell-based, human; details: 24 hours, sulindac sulfide 200 μM, exisulind 600 μM, Compound A 1 μM, Compound B 10 μM
Procedure: The cells were lysed and the extracts assayed for caspase-3 activity using Ac-DEVD-AFC as the substrate, in the presence or absence of the caspase-3 inhibitor Ac-DEVD-CHO. Caspase-3 activity was calculated by subtracting the AFC fluorescence (excitation; 400 nm, emission; 505 nm) in the presence of Ac-DEVD-CHO from the AFC fluorescence in the absence of Ac-DEVD-CHO.
Protein extracts were then prepared and caspase-3 activity was measured with Ac-DEVD-AFC as the substrate, in the presence or absence of the caspase-3 inhibitor Ac-DEVD-CHO. […] Similar findings were obtained with HCT116 and HT29 cells (data not shown).

[1] = target: T1, GST-cGB-PDE5 fusion protein (cGMP binding sites of human PDE5A) (Homo sapiens, UniProt O76074); assay: cGMP binding assay (3H-cGMP competition); details: 3H-cGMP 2 μM, 22° C., 1 hour
T1 construct: made in house; host or cells: E. coli BL21 (DE3)

[2] = test system: JNK1 in SW480 colon cancer cells; assay: JNK1 immunoprecipitation in vitro kinase assay with GST-c-Jun(1-79); format: cell-based, human; details: SW480 cells, one hour; sulindac sulfide 50-500 μM, exisulind 100-600 μM, Compound A 0.1-5 μM, Compound B 1-50 μM
Procedure: The cells were lysed, JNK1 immunoprecipitated with an anti-JNK1 antibody, and the immunoprecipitate (“IP”) assayed for in vitro kinase activity with GST-c-Jun(1-79) as the substrate. The experiments were repeated three times with similar results. Fold activation was measured using a Phosphor Imager.
FIG. 1B: SW480 cells were treated with Compound A (1 μM) for the indicated time periods and in vitro JNK1 kinase activity was determined as described above.
FIG. 2A SW480 cells were treated with either DMSO (−) or Compound A, 0.1 μM; dbcGMP, 500 μM; YC-1, 50 μM; MY-5445, 50 μM; dipyridamole, 10 μM or dbcAMP, 500 μM for one hour. The cells were lysed, JNK1 immunoprecipitated, and the IP assayed for in vitro kinase activity as described in FIG. 1A.
FIG. 2B SW480 cells were pre-treated with either DMSO, KT5720 (2 μM) or Rp-8-pCPT-cGMPS (2 μM) for 2 hours and then treated with Compound B (0, 1 or 10 μM) for one hour. The cells were lysed and assayed for JNK1 activation in the IP as described above.
These concentrations were chosen since they provided optimal induction of apoptosis. Endogenous JNK1 was immunoprecipitated with anti-JNK1 antibody and in vitro kinase assays were performed with GST-c-Jun(1-79) as the substrate. […]
However, the precise role of PKG in signal transduction pathways is not known. […] As a control, KT5720 was used as a protein kinase A (“PKA”)-specific inhibitor. SW480 cells were treated with either DMSO, KT5720 (2 μM) or Rp-8-pCPT-cGMPS (2 μM) for 2 hours and then treated with either DMSO or Compound B (1 or 10 μM) for one hour. Cell extracts were collected and assayed for JNK1 activation.

PKG in SW480 cells = assay: Western blot of PKG expression; format: cell-based, human; details: 48 hours
Procedure: SW480 cells treated with exisulind as described previously are harvested from the microfuge tubes by rinsing once with ice-cold PBS. The cells are lysed by modified RIPA buffer for 15 minutes with agitation. The cell lysate is spun down in a cold room. The supernatants are transferred to fresh microcentrifuge tubes immediately after spinning. BioRad DC Protein Assay (Temecula, Calif.) is performed to determine the protein concentrations in samples. The samples are normalized for protein concentration, as described above.
50 μg of each sample is loaded to 10% SDS gel. SDS-PAGE is performed, and the proteins then are transferred to a nitrocellulose membrane. The blotted nitrocellulose membrane are blocked in freshly prepared TBST containing 5% nonfat dry milk for one hour at room temperature with constant agitation.
A goat-anti-PKG primary antibody is diluted to the recommended concentration/dilution in fresh TBST/5% nonfat dry milk. The nitrocellulose membrane is placed in the primary antibody solution and incubated one hour at room temperature with agitation. The nitrocellulose membrane is washed three times for ten minutes each with TBST. The nitrocellulose membrane is incubated in a solution containing a secondary POD conjugated rabbit anti-goat antibody for 1 hour at room temperature with agitation. The nitrocellulose membrane is washed three times for ten minutes each time with TBST. […]

T1 sequence (O76074 46-539 limits assumed): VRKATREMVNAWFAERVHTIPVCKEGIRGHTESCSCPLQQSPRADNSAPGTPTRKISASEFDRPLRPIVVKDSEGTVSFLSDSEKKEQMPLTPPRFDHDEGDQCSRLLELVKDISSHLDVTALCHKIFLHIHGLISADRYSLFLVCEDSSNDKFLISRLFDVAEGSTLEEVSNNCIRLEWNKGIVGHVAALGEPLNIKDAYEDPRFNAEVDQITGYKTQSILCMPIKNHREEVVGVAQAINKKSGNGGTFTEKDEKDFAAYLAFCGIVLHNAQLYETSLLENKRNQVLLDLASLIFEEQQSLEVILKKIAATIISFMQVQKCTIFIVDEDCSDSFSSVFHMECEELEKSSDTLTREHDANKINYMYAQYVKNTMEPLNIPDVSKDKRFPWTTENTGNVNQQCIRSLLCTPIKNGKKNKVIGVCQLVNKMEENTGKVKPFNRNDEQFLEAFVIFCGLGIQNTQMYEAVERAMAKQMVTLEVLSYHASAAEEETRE

Row | SMILES | GI50 (PANC-1) | GI50 (RPMI-8226) | GI50 (Molt-4) | GI50 (K-562) | caspase-3 activation (caspase-3 in SW480 cells) | competition with cGMP for the cGMP binding sites of GST-cGB-PDE5 [1] | JNK1 activation [2] | PKG level by Western blot (PKG in SW480 cells)
1 | CC1=C(CC(=O)NCc2ccccc2)c2cc(F)ccc2/C1=C\c1ccncc1.Cl [Compound B, (Z)-5-fluoro-2-methyl-(4-pyridylidene)-3-(N-benzyl)indenylacetamide hydrochloride] | 2.2 µM | 1.2 µM | 1.6 µM | 1.8 µM | led to activation of caspase-3 | None of the PDE5 inhibitors showed any competition with cGMP | activated JNK1 | –
2 | CC1=C(CC(=O)O)c2cc(F)ccc2/C1=C\c1ccc(S(C)(=O)=O)cc1 [exisulind, 5-fluoro-2-methyl-1-(p-methylsulfonylbenzylidene)-3-indenylacetic acid] | – | – | – | – | led to activation of caspase-3 | None of the PDE5 inhibitors showed any competition with cGMP | activated JNK1 | the increase of PKG

Source: patent US6569638B1, “Method for screening compounds for the treatment of neoplasia” (Cell Pathways, Inc, priority 2000, dated 2003)
